Reference: patent US4302465A, “Therapeutically active, substituted piperidines and pyrrolidines therapeutic compositions thereof and methods of use thereof” (priority 1979, dated 1981)
Where “and” joins values, the source holds several entries; their conditions need not be identical. Equal entries are not always repeated.

Key:
in vivo [1] = conditions: mouse
[2] = system: arrhythmic heart-beats induced by ouabain; test: Effect against arrhythmic heart-beats induced by ouabain in anaesthetized dogs; format: in vivo; conditions: for Duration of regularization / Number of regularized arrhythmias (percent) / Number of regularized arrhythmias: ouabain; for Number of regularized arrhythmias: count
in vivo [3] = conditions: rat, iv
guinea pigs = test: Local anaesthetic effect in guinea pigs after intracutaneous infiltration; format: in vivo; conditions: for Duration of Anaesthesia: 1.0% + adrenaline 5 μg/ml, 12 animals
rabbits = conditions: rabbit, in vivo
sciatic nerve = test: Local anaesthetic effect in rats after perineuronal injection close to the sciatic nerve; format: in vivo; conditions: for Duration of anaesthesia, Motoric Blockage / Duration of anaesthesia, Sensory Blockage: 1.0% + adr. 5 μg/ml, 10 animals, perineuronal, sciatic nerve

Structure (SMILES)	LD50 (in vivo [1])	effect against arrhythmic heart-beats induced by ouabain, in words [2]	Duration of regularization ([2]; dose 1.0 mg/kg)	Number of regularized arrhythmias (percent) ([2]; dose 1.0 mg/kg)	Number of regularized arrhythmias ([2]; dose 1.0 mg/kg)	Duration of regularization ([2]; dose 2.0 mg/kg)	Number of regularized arrhythmias (percent) ([2]; dose 2.0 mg/kg)	Number of regularized arrhythmias ([2]; dose 2.0 mg/kg)	TD50 (in vivo [3])	local anaesthetic effect, in words (guinea pigs)	Duration of Anaesthesia (guinea pigs)	tissue irritation, in words (rabbits)	Duration of anaesthesia, Motoric Blockage (sciatic nerve)	Duration of anaesthesia, Sensory Blockage (sciatic nerve)	local anaesthetic effect, in words (sciatic nerve; perineuronal injection close to the sciatic nerve)	LD50 (in vivo [1]; iv)
Cc1cccc(C)c1NC(=O)C1CCCCN1CCO (racemic) [Substance S-1249, DL-N-(2-hydroxyethyl)pipecolinyl-2,6-dimethylanilide]	57 mg/kg	effects equivalent to lidocaine and better than mepivacaine	130 ± 40 min	65%	13	280 ± 70 min	70%	17	103 ± 8 mg/kg	local anaesthetic effect of the same order of magnitude as lidocaine and mepivacaine	140 ± 8 min	considerably less tissue irritation	83 ± 6 min	82 ± 6 min	equivalent local anaesthetic effect to lidocaine and mepivacaine	
CCN(CC)CC(=O)Nc1c(C)cccc1C [Lidocaine, lidocaine, reference compound]				60%	12	220 ± 30 min	79%	19			132 ± 7 min		79 ± 5 min	77 ± 5 min		
Cc1cccc(C)c1NC(=O)C1CCCCN1C (centres unmarked) [Mepivacaine, mepivacaine, reference compound]	31 mg/kg		110 ± 20 min	50%	5	185 ± 50 min	50% and 60%	6	38 ± 3 mg/kg		152 ± 16 min		89 ± 4 min	87 ± 4 min		31 mg/kg
Cc1cccc(C)c1NC(=O)C1CCCC[N+]1(C)CCO (centres unmarked) [N-methyl-S-1249, N(quaternary-2-hydroxyethyl-N-methyl)pipecolinyl-2,6-dimethylanilide]		rhythm-regularizing effects	180 ± 30 min	100%	4	310 ± 50 min	100%	4	125 mg/kg	local anaesthetic effect	128 ± 12 min					84 mg/kg
Cc1cccc(C)c1NC(=O)[C@@H]1CCCN1CCO [Substance S-1258, L-N-(2-hydroxyethyl)prolyl-2,6-dimethylanilide]		effective against arrhythmic heartbeats induced by ouabain	95 ± 20 min	83%	5	195 ± 40 min	67%	4	130 ± 10 mg/kg	better local anaesthetic effect than lidocaine	111 ± 8 min					110 mg/kg
Cc1cccc(C)c1NC(=O)C1CCCCN1CCCO (centres unmarked) [Substance S-1265, N-(3-Hydroxypropyl)pipecolinyl-2,6-dimethylanilide]		effects equivalent to lidocaine and mepivacaine	120 ± 30 min	67%	4	200 ± 40 min	83%	5	80 ± 4 mg/kg	better local anaesthetic effect than lidocaine	151 ± 6 min					40 mg/kg
